Patent EP3833345B1, “SMALL MOLECULE-INHIBITORS OF 6-PHOSPHOFRUCTO-1-KINASE FOR REDUCING LACTATE GENERATION BY CANCER CELLS” (Kemijski Institut, priority 2018, dated 2020)
Entries after “also recorded” stand apart in the source; their conditions may differ.

Tests used:
Jurkat cells [1] = assay: lactate excretion by Jurkat cells (enzymatic L-lactic acid kit); type: cell-based, human
Description: The cells were incubated in 1 mL volume (24 well plates) at 5% CO2 and 37°C. The inhibitors were added in 100 µM concentration. As a control, equivalent amount of DMSO as used for the addition of inhibitors was supplemented to the medium. The tests started with 1×10^5 cells per mL. Extracellular lactate excreted by the Jurkat cells was measured in the supernatant of the growth medium after the cells were removed by centrifugation at 1500 rpm for 5 minutes. Lactate concentration was determined enzymatically using L-Lactatic acid kit (K-LATE, Megazyme, Ireland).
Measurements of lactate excretion in the tumorigenic Jurkat cells and the cells treated with two selected inhibitors at different concentrations were repeated by more detailed measurements. The growth conditions were identical to those described in Experiment 2. No significant difference in lactate excretion could be observed by the treated and untreated cells during the initial stage of growth that lasted for approximately 12 hours. Later on lactate excretion by the Jurkat cells ceased in the presence of both inhibitors.

Jurkat cells [2] = assay: growth and survival of Jurkat cells (Countess, Trypan blue); type: cell-based
Description: The effects of both inhibitors were tested also on growth of the non-adherent Jurkat cells. Total amount of cells and the number of dead cells was determined by the Countess (Invitrogen, Carlsbad, CA). […].

Jurkat cells [3] = assay: NADH levels in Jurkat cells (NADH/NAD fluorometric assay kit); type: cell-based, human; conditions: 24 hours after addition, different concentrations
Description: By inhibiting modified PFK-M enzyme in the cancer cells, glycolytic flux should be decreased and concomitantly NADH levels reduced. To verify that, the amounts of reduced pyridine nucleotide was measured by NADH/NAD fluorometric assay kit (Abcam). The Jurkat cells were seeded into the wells of 96 wells plate at 5×10^5 cells per mL. The untreated cells (control) and the cells with specified amounts of added Inhibitors No. 3 and No. 9 were incubated for 24 hours.

Jurkat cells [4] = assay: Seahorse XF assay (ECAR and OCR) in Jurkat cells; type: cell-based, human
Description: The efficiency of Inhibitors No. 3 and No. 9 was also tested by the determinations of glycolytic capacities in Jurkat cells in the presence and absence of inhibitors. For this purpose, Seahorse XF assay (Agilent Technology) was performed that enables non-destructive measurements of extracellular acidification rate (ECAR) and oxygen consumption rate (OCR) of tested cells. The cells were incubated in […] GlutaMAX medium with 10% FBS and 24 hours before the experiment inhibitors were added (100 µM). Non-adherent Jurkat cells (1×10^6 per mL) were stuck to the bottom of the wells by poly-I-lysine. The experiment was conducted essentially as recommended by Seahorse XF protocol and after 20 minutes of incubation, 1 µM of oligomycin A (ATP synthase inhibitor) and 0,25 µM of Carbonyl cyanide-4-(trifluoromethoxy)phenylhydrazone (FCCP) (mitochondrial oxidative phosphorylation uncoupler) were added to the cells. […] Reduced lactate excretion by the cells treated with both inhibitors might be responsible for reduced ECARs. Although the addition of oligomycin A and FCCP increased the extracellular acidification rate by the cells treated with both inhibitors, similar increase of ECAR was also observed in the untreated cells. […] It implies that inhibited PFK1 enzymes might reduce glycolytic flux and prevent the need for pyruvate reduction into lactate by re-oxidizing redundant cytosolic NADH. Under such conditions pyruvate can enter mitochondria, replenishing tri-carboxylic acids (TCA) cycle and fuelling oxidative respiration.

COLO 829 cells [5] = assay: lactate excretion by COLO 829 cells; type: cell-based; conditions: for lactate formation in COLO 829 cells, sequential re-insertion: inhibitor added 8 hours after inoculation, then at 24-hour intervals, low concentrations (from 10 µM)
Description: (§1) Preliminary in vivo tests were run by measuring lactate production by three different tumorigenic cell lines. Again, 100 µM concentrations of tested compounds have been added to the medium. For the experiment, the following tumorigenic cells lines originating from different tumours were tested: Caco-2 cells (Figure 10a), originating from colorectal adenoma carcinoma; COLO 829 cells (Figure 10b), isolated from melanoma; and MDA-MB-231 cells (Figure 10c) derived from metastatic phase of mammary/breast cancer. All adherent cell lines were grown in the RPMI 1640 GlutaMAX substrate (Thermo Fisher) supplemented with 10% FBS.
On the basis of preliminary results, inhibitors No. 23, 29, 30 and 31 were tested on COLO 829 cells. […] No significant discrepancies of total cell numbers in respect to the control were observed due to the different concentrations of inhibitors in the medium (Figure 13e). The average percent of dead COLO 829 cells in the control and in the presence of different concentrations of inhibitors were as follows: inh. 23 (9,23±0,6%), inh. 29 (9,31±0,73%), inh. 30 (8,27±0,49%), inh. 31 (8,26±0,38%). Additionally, cytotoxicity of inh. 3 (5,01±1,08%) and 9 (3,65±0,78%) for COLO 829 cells were also determined. No dose dependent decrease of survival was observed by any inhibitor.
(§2) A decrease in inhibitory effectiveness of some compounds was observed after certain period of time (Example 11). […] Therefore, the influence of selected inhibitors was assessed by sequential re-insertion of low concentrations of inhibitors at indicated time points. The inhibitors were first added to the medium 8 hours after the inoculation followed by periodically additions at 24-hour intervals (marked by arrows).
No significant cytostatic (Figure 16f) of cytotoxic effect of inhibitors could be detected after 92 hours of incubation despite of sequential addition of various concentrations of inhibitors. The following average percentages of dead cells were perceived in the medium without and media with inh. 3 (1,95±0,15%) inh. 9 (1,70±0,14%), inh. 23 (2,40±0,09%), inh. 29 (1,66±0,25%) and inh. 30 (1,38±0,18%). No detrimental effects of increased inhibitors concentrations on cell deaths have been observed.

Caco-2 cells [6] = assay: cytotoxicity in Caco-2 cells (lactate dehydrogenase (LDH) kit); type: cell-based; conditions: for average percent of dead cells, Caco-2: single addition, average over control and different concentrations of inhibitor
Description: (§3) Lactate generation, growth yield and survival under normal and inhibitory conditions of three different tumorigenic cells lines were determined in more detailed measurements. […] Cytotoxicity was measured by the Lactate dehydrogenase (LDH) kit (Roche).

COLO 829 cells [7] = assay: cytotoxicity in COLO 829 cells (LDH kit); type: cell-based; conditions: for average percentages of dead cells, COLO 829, sequential re-insertion: sequential addition at 24-hour intervals, 92 hours, average over medium without and with inhibitor; for average percent of dead COLO 829 cells: single addition, average over control and different concentrations of inhibitor
Description: as §3

MDA-MB-231 cells [8] = assay: cytotoxicity in MDA-MB-231 cells (LDH kit); type: cell-based; conditions: for average percentages of dead cells, MDA-MB-231, sequential re-insertion: sequential addition at 24-hour intervals, 92 hours, average over medium without and with inhibitor; for average percent of dead MDA-MB-231 cells: single addition, average over control and different concentrations of inhibitor
Description: as §3
Inhibitors No. 23, 29, 30 and 31 were tested for preventing lactate generation by the MDA-MB-231 cells.

Jurkat cells [9] = assay: long-term fed-batch cultivation of Jurkat cells (18 days); conditions: 100 µM, fed-batch, 18 days
MDA-MB-231 cells [10] = assay: lactate excretion by MDA-MB-231 cells; type: cell-based; conditions: single addition, different concentrations
Description: as §1
Inhibitors No. 23, 29, 30 and 31 were tested for preventing lactate generation by the MDA-MB-231 cells. […] No significant discrepancies of total cell numbers were observed (Figure 14e) due to the different concentrations of inhibitors in the medium. […] The average percent of dead MDA-MB-231 cells in the control and in the presence of different concentrations of inhibitors were as follows: inh. 23 (2,98±0,2%), inh. 29 (3,37±0,39%), inh. 30 (3,4±0,21%), inh. 31 (6,87±0,44%). Additionally, cytotoxicity of inh. 3 (7,2±0,47%) and 9 (6,59±0,29%) for MDA-MB-231 cells were also determined. No dose dependent decrease of survival was observed by any inhibitor.
as §2
In MDA-MB-231 calls similar results to those found in Caco-2 cells were observed. […] No significant cytostatic (Figure 17f) or cytotoxic effect of inhibitors could be detected after 92 hours of incubation despite of sequential addition of various concentrations of inhibitors. The following average percentages of dead cells were perceived in the medium without and with inh. 3 (2,05±0,18%), inh. 9 (1,85±0,05%), inh. 23 (2,20±0,15%), inh. 29 (1,54±0,16%) and inh. 30 (2,00±0,18%). No detrimental effects of increased inhibitors concentrations on cell deaths have been observed.

Caco-2 cells [11] = assay: total cell numbers of Caco-2 cells at end of incubation; type: cell-based; conditions: single addition, end of incubation (92 hours)
Description: as §3

[12] = target: T1, modified (70 kDa) 6-phosphofructo-1-kinase (PFK-L), sfPFK-L (Homo sapiens, UniProt P17858); assay: in vitro inhibition of purified recombinant modified PFK-L fragment
T1 sequence (P17858 1-645 limits assumed): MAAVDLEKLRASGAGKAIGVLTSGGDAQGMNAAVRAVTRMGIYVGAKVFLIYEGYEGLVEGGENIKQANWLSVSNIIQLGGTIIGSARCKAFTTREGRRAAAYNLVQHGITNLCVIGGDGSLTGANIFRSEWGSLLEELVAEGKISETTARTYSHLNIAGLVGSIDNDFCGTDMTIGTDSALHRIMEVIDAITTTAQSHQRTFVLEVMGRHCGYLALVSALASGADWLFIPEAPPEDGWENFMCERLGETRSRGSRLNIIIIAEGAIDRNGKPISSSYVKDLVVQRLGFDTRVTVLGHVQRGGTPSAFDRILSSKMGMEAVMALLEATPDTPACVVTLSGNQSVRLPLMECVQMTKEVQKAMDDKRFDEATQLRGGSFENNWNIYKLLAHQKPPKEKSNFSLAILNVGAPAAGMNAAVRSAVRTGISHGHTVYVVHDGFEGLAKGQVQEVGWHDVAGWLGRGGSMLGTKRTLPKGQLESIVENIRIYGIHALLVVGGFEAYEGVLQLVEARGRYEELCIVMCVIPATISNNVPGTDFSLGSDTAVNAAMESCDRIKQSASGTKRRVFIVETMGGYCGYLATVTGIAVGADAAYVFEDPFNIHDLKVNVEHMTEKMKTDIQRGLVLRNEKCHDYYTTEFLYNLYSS

Caco-2 cells [13] = assay: lactate excretion by Caco-2 cells; type: cell-based; conditions: single addition, different concentrations (20-80 µM)
Description: as §1, with “Again, 100 µM concentrations of tested compounds have been added to the medium.” left out, “cancer.” for “cancer. All adherent cell lines were grown in the RPMI 1640 GlutaMAX substrate (Thermo Fisher) supplemented with 10% FBS.”
as §3
Therefore, the influence of selected inhibitors was assessed by sequential re-insertion of low concentrations of inhibitors at indicated time points. The inhibitors were first added to the medium 8 hours after the inoculation followed by periodically additions at 24-hour intervals (marked by arrows).

Compound | lactate formation in COLO 829 cells, sequential re-insertion (COLO 829 cells [5]) | average percent of dead cells, Caco-2 (Caco-2 cells [6]) | average percentages of dead cells, COLO 829, sequential re-insertion (COLO 829 cells [7]) | average percent of dead COLO 829 cells (COLO 829 cells [7]) | average percentages of dead cells, MDA-MB-231, sequential re-insertion (MDA-MB-231 cells [8]) | average percent of dead MDA-MB-231 cells (MDA-MB-231 cells [8]) | IC50 [12] | further results
COc1ccc(-c2cccc(-c3ccn(Cc4noc(C)n4)n3)c2)nn1 [Inhibitor No. 9, 3-methoxy-6-(3-{1-[(5-methyl-1,2,4-oxadiazol-3-yl)methyl]-1H-pyrazol-3-yl}phenyl)pyridazine] | strong reduction of lactate formation | 3,33±0,14% | 1,70±0,14% | 3,65±0,78% | 1,85±0,05% | 6,59±0,29% | – | time at which lactate production was averted (Jurkat cells [1]; inhibitor concentrations lower than 200 µM): 36 h; lactate excretion by the Jurkat cells (Jurkat cells [1]; preliminary test, 100 µM inhibitor, followed for 48 hours, versus DMSO control): Significantly lowered lactate excretions; also recorded: effectively prevented excretion; dead cells (Jurkat cells [2]; Jurkat cells stained with Tripan blue): 3,76±0,3%; effect on growth of Jurkat cells (total cell numbers) (Jurkat cells [2]; different concentrations, 72 hours): no effect; NADH levels (Jurkat cells [3]): steadily decreased in dose dependent manner; ECAR and OCR values prior to the addition of oligomycin A and FCCP (Jurkat cells [4]; 100 µM added 24 hours before the experiment, treated versus untreated cells): untreated Jurkat cells revealed higher ECAR and OCR values; oxygen consumption rate after addition of oligomycin A and FCCP (Jurkat cells [4]; 100 µM, 1 µM oligomycin A and 0,25 µM FCCP, versus untreated cells): slightly stronger affect; average percentages of dead cells, Caco-2, sequential re-insertion (Caco-2 cells [6]; sequential addition at 24-hour intervals, 92 hours, average over medium without and with inhibitor): 5,05±0,62%; viability of the Jurkat cells, long-term (Jurkat cells [9]): remained unchanged; number of cells, long-term (Jurkat cells [9]; fresh medium with inhibitor every 48 hours): steadily declined
Nc1nnc(-c2cc(-c3ccc(O)cc3)on2)o1 [Inhibitor No. 30, 4-[3-(5-amino-1,3,4-oxadiazol-2-yl)isoxazol-5-yl]phenol] | slightly weaker inhibitions | – | 1,38±0,18% | 8,27±0,49% | 2,00±0,18% | 3,4±0,21% | 10 µM | lactate excretion by COLO 829 cells (COLO 829 cells [5]; single addition, different concentrations): strongest reductions of lactate excretion; lactate excretion by MDA-MB-231 cells (MDA-MB-231 cells [10]): strong inhibition; total cell numbers, Caco-2 (Caco-2 cells [11]): minor dose dependent reductions in total cell numbers
O=C(CCS(=O)(=O)c1ccccc1)Nc1nnc(-c2ccno2)o1 [Inhibitor No. 32, 3-(benzenesulfonyl)-N-(5-isoxazol-5-yl-1,3,4-oxadiazol-2-yl)propanamide] | – | 3,97±0,18% | – | – | – | – | 8 µM | lactate generation by Caco-2 cells (Caco-2 cells [13]): strong inhibition at all tested concentrations
